From the supplement of paper PMC5412046
Where a name gives a salt, the structure may show the parent alone.

Legend:
SB.msgc-1 [1] = test: area under the dose-response curve of % viability (trapezoidal, 11 doses) (% viability x log10 concentration); higher = less cytotoxic; conditions: SB.msgc-1 (sporadic gastric cancer)
Procedure, shortened: (§1)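 The values represent viability normalised to DMSO, expressed at the highest concentration or as trapezoidal area under the curve. Cells were hereditary or sporadic patient-derived gastric cancer cells, 500 in 5 μL medium per 1536 well. They were dosed with 23 nL of compound in DMSO by pintool over 11 threefold dilutions, with each compound's top concentration recorded. CellTiter-Glo was applied 48 h later for 30 min at room temperature before luminescence was read on a ViewLux.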

SB.mhdgc-1 [2] = test: as above; conditions: SB.mhdgc-1 (hereditary c.1380delA CDH1 gastric cancer)
Procedure, shortened: as §1

SB.msgc-1 [3] = test: viability at highest tested concentration (MAXR) relative to DMSO; higher = less cytotoxic; conditions: SB.msgc-1 (sporadic gastric cancer)
Procedure, shortened: as §1

SB.mhdgc-1 [4] = test: as above; conditions: SB.mhdgc-1 (hereditary c.1380delA CDH1 gastric cancer)
Procedure, shortened: as §1

| SMILES | area under the dose-response curve (SB.msgc-1 [1]) | area under the dose-response curve (SB.mhdgc-1 [2]) | viability (SB.msgc-1 [3]) | viability (SB.mhdgc-1 [4]) |
| --- | --- | --- | --- | --- |
| OC[C@H]1O[C@@H](Oc2cc(O)cc(/C=C/c3ccc(O)cc3)c2)[C@H](O)[C@@H](O)[C@@H]1O [Polydatin] (top concentration 46.0829 µM) | 537 | 594 | 55.8% | 76.4% |
| COc1cc[nH]c2ncc(C(=O)C(=O)N3CCN(C(=O)c4ccccc4)C[C@H]3C)c1-2 (top concentration 46.0829 µM) | 589 | 482 | 115% | 81.9% |
| OCCn1cc(-c2cnc3nnn(Cc4ccc5ncccc5c4)c3n2)cn1 (top concentration 46.0829 µM) | 515 | 588 | 93.7% | 55.1% |
| CCn1c(-c2nonc2N)nc2cnc(Oc3cccc(NC(=O)c4ccc(OCCN5CCOCC5)cc4)c3)cc21 (top concentration 46.0829 µM) | 514 | 479 | 54.2% | 35.6% |
| CCN(CC)CCCC(C)Nc1ccnc2cc(Cl)ccc12 (centres undefined) [Chloroquine (CQ)] (top concentration 46.0829 µM) | 456 | 507 | 47.3% | 23.6% |
| COc1cc(C(=O)N2CCC(N3CCN(C)CC3)CC2)ccc1Nc1ncc2c(n1)N(C)c1ccccc1C(=O)N2C [LRRK2-IN-1] (top concentration 46.0829 µM) | 423 | 483 | 13.7% | 35.1% |
| CN(C)CC[C@H](c1ccc(Cl)cc1)c1ccccn1 [Chlorphenamine maleate] (top concentration 46.0829 µM) | 326 | 464 | 49.2% | 82.7% |
| O=C(CCCCCCNC(=O)c1cnc(N(c2ccccc2)c2ccccc2)nc1)NO [ACY-1215] (top concentration 46.0829 µM) | 421 | 474 | 4.17% | 39.2% |
| CN1C(=O)C(Cc2c[nH]c3ccccc23)NC1=S (centres undefined) [Necrostatin-1] (top concentration 46.0829 µM) | 494 | 501 | 82.5% | 105% |
| COc1ccc(-c2c(-c3ccc(O)cc3O)n[nH]c2C)cc1 [PDHK RIKEN] (top concentration 92.1659 µM) | 518 | 560 | 66.6% | 88.1% |
| CN(C)Cc1cccc(N/C(=C2\C(=O)Nc3cc(C(=O)N(C)C)ccc32)c2ccccc2)c1 (top concentration 46.0829 µM) | 452 | 316 | 35.3% | 6.66% |
| CC(=O)Nc1nc(C)c(-c2ccc(Cl)c([S+](=O)([O-])NCCO)c2)s1 [PIK-93] (top concentration 46.0829 µM) | 400 | 415 | 43% | 19.3% |
| CCc1cc(-c2n[nH]c(C)c2-c2ccc3c(c2)OCCO3)c(O)cc1O (top concentration 46.0829 µM) | 422 | 401 | 46.9% | 36.3% |
| Cc1ccc(C(=O)c2cc(O)c(O)c([N+](=O)[O-])c2)cc1 [Tolcapone] (top concentration 46.0829 µM) | 459 | 523 | 25.3% | 40.4% |
| Cc1ccc2c(=O)c3cccc(CC(=O)O)c3oc2c1C [Vadimezan] (top concentration 46.0829 µM) | 498 | 461 | 81.5% | 36.3% |
| COc1cc2c(cc1OC)CC(=O)N(CCCN(C)C[C@H]1Cc3cc(OC)c(OC)cc31)CC2.Cl [Ivabradine hydrochloride] (top concentration 46.0829 µM) | 559 | 503 | 70.4% | 60.9% |
| O=c1[nH]cnc2c1ncn2[C@H]1CC[C@@H](CO)O1 [Didanosine] (top concentration 46.0829 µM) | 470 | 564 | 61.5% | 3.57% |
| FC1=CC=C(C=C1)N2/C=C\C=C(C(=O)NC3=CC=C(OC4=C5C=C[NH]C5=NC=C4)C(=C3)F)/C2=O [BMS-2] (top concentration 46.0829 µM) | 485 | 521 | 39.6% | 2.79% |
| COc1cc2c(NC3CCN(C(C)C)CC3)nc(C3CCCCC3)nc2cc1OCCCN1CCCC1 [UNC-0638] (top concentration 46.0829 µM) | 435 | 368 | 12.3% | 4.01% |
| CC=CC1=C(C(=O)O)N2C(=O)[C@@H](NC(=O)[C@H](N)c3ccc(O)cc3)[C@H]2SC1.O [Cefprozil] (top concentration 46.0829 µM) | 573 | 516 | 92.3% | 4.42% |
| O=C1NC(=O)/C(=C/c2cccc(C(F)(F)F)c2)S1 [SMI-4a] (top concentration 46.0829 µM) | 509 | 551 | 50.3% | 69.4% |
| CN(C)C1=C(Br)C=C(C=C1)C\2NC3=C(\C4=C2C(=O)CC(C)(C)C4)C5=CC=CC=C5C=C3 (centres undefined) [GLS968] (top concentration 46.0829 µM) | 494 | 485 | 73.8% | 51.1% |
| CN(CCOc1ccc(CC2SC(=O)NC2=O)cc1)c1ccccn1 (centres undefined) [Rosiglitazone] (top concentration 46.0829 µM) | 467 | 586 | 69.1% | 109% |

| SMILES | area under the dose-response curve (SB.msgc-1 [1]) | area under the dose-response curve (SB.mhdgc-1 [2]) | viability (SB.msgc-1 [3]) | viability (SB.mhdgc-1 [4]) |
| --- | --- | --- | --- | --- |
| COc1ccc(-n2c(C)c([N+](=O)[O-])c3ccc(O)cc32)cc1 [ID-8] (top concentration 46.0829 µM) | 548 | 475 | 108% | 39.1% |
| CC12CC3CC(C)(C1)CC(N)(C3)C2 [Memantine hydrochloride] (top concentration 46.0829 µM) | 472 | 524 | 3.88% | 3.41% |
| CC[C@H]1OC(=O)[C@H](C)[C@@H](O[C@H]2C[C@@](C)(OC)[C@@H](O)[C@H](C)O2)[C@H](C)[C@@H](O[C@@H]2O[C@H](C)C[C@H](N(C)C)[C@H]2O)[C@](C)(OC)C[C@@H](C)C(=O)[C@H](C)[C@@H](O)[C@]1(C)O [Clarithromycin] (top concentration 46.0829 µM) | 433 | 386 | 78.6% | 26.2% |
| OC1=CC(=C(C=C1)\C2=C(O)\C(=O)C3=C(O2)C=C(O)C=C3O)O [Morin hydrate] (top concentration 46.0829 µM) | 516 | 530 | 105% | 132% |
| C[C@H]1COC2=C3N1\C=C(C(O)=O)/C(=O)C3=CC(=C2N4CCN(C)CC4)F [Levofloxacin] (top concentration 46.0829 µM) | 530 | 528 | 105% | 129% |
| CCN1CCN(Cc2ccc(-c3cc4c(N[C@H](C)c5ccccc5)ncnc4[nH]3)cc2)CC1 [AEE-788] (top concentration 46.0829 µM) | 189 | 214 | 24.6% | 6.64% |
| COC/1=C/C=C2\C(=C/C1=O)[C@H](CCC3=CC(=C(OC)C(=C23)OC)OC)NC(C)=O [Colchicine] (top concentration 46.0829 µM) | 223 | 236 | 35.4% | 55.9% |
| COc1ccc2c(c1)CC[C@@H](CN(C)CC(=O)O)[C@H]2c1ccccc1 (top concentration 46.0829 µM) | 474 | 459 | 33.9% | 55.3% |
| C=C1CCC2[C@](C)(CO)C(O)CC[C@]2(C)C1C/C=C1/C(=O)OCC1O (some centres undefined) [Andrographolide] (top concentration 92.1659 µM) | 565 | 517 | 122% | 122% |
| C[C@@H]1O[C@@H](O[C@H]\2CC[C@]\3(C)[C@@H]4CC[C@]5(C)[C@@H](CC[C@@]5(O)[C@H]4CCC3=C2)C/6=C/OC(=O)/C=C6)[C@H](O)[C@H](O)[C@@H]1O [Proscillaridin] (top concentration 46.0829 µM) | 314 | 238 | 47% | 15.5% |
| N[S+](=O)([O-])c1ccc(Nc2nc(OCC3CCCCC3)c3[nH]cnc3n2)cc1 [NU-6102] (top concentration 46.0829 µM) | 537 | 496 | 69.2% | 42.7% |
| C/C=C/C/C=C/CCC(=O)[C@H]1O[C@H]1C(N)=O [Cerulenin] (top concentration 46.0829 µM) | 562 | 475 | 75% | 67.9% |
| OCCNC1CCCc2c1[nH]c1ccc(-c3ccccc3)cc21 (centres undefined) [CASIN] (top concentration 46.0829 µM) | 500 | 481 | 28.3% | 0.554% |
| CN(C)C(=O)[C@H](O)[C@H](Cc1ccccc1)NC(=O)c1cc2cc(Cl)ccc2[nH]1 (top concentration 46.0829 µM) | 476 | 476 | 55.1% | 59.6% |
| C=CC(=O)Nc1ccc2ncnc(Nc3ccc(OCc4cccc(F)c4)c(Cl)c3)c2c1 [AST-1306] (top concentration 46.0829 µM) | 183 | 314 | 10.9% | 1.47% |
| C[C@]12CC[C@@H]3c4ccc(O)cc4CC[C@H]3[C@@H]1[C@@H](O)[C@@H](O)[C@@H]2O [Estetrol] (top concentration 46.0829 µM) | 549 | 439 | 78.6% | 7.6% |
| C=CC(=O)N1CCC[C@@H](n2nc(-c3ccc(Oc4ccccc4)cc3)c3c(N)ncnc32)C1 (top concentration 46.0829 µM) | 327 | 362 | 57.9% | 3.72% |
| CC[N+](CC)(CC)CCOc1cccc(OCC[N+](CC)(CC)CC)c1OCC[N+](CC)(CC)CC [Gallamine triethiodide] (top concentration 46.0829 µM) | 543 | 524 | 108% | 82.6% |
| c1ccc(CCCN2CCN(CCOC(c3ccccc3)c3ccccc3)CC2)cc1 (top concentration 46.0829 µM) | 486 | 430 | 30.4% | 9.55% |
| Cc1[nH]c(/C=C2\C(=O)Nc3ccc([S+](=O)([O-])Cc4c(Cl)cccc4Cl)cc32)c(C)c1C(=O)N1CCC[C@@H]1CN1CCCC1 (top concentration 46.0829 µM) | 462 | 545 | -1.67% | 0.132% |
| CC(=O)N1CCN(c2ccc(OCc3nn(C)c(C)c3-c3cccc4c(CCCOc5cccc6ccccc56)c(C(=O)O)n(Cc5cccnc5)c34)cc2)CC1 (top concentration 46.0829 µM) | 355 | 321 | 2.94% | 0.82% |
| S=C1N\C=N/C2=C1[NH]C=N2 [6-mercaptopurine] (top concentration 46.0829 µM) | 458 | 513 | 35.8% | 101% |
| O=C1N(c2ccccc2)c2ccccc2C1(Cc1ccncc1)Cc1ccncc1 [Linopirdine] (top concentration 46.0829 µM) | 540 | 369 | 57.2% | 5.06% |
